Here are results for 4 compounds from PMC2661360 (PLoS ONE, 2009).

In one series the test system is C. albicans cells. Put plainly: Inhibition of C. albicans degradation of Hst-5 by protease inhibitors. The format is cell-based, Candida albicans. Particulars: 1 mM inhibitor in the degradation assay; SDS-PAGE (Figure 3B).
The target of the next series is proteinase K (Parengyodontium album, UniProt P06873). Briefly: Inhibition of proteinase K degradation of Hst-5 by protease inhibitors. The format is biochemical. Details: purchased Sigma (Sigma-Aldrich Chemical, St. Louis, MO). The following applies: 1 mM inhibitor; SDS-PAGE (Figure 3A).
Series [1] concerns the target T1, Sap9 (Candida albicans, UniProt Q59SU1). Briefly: Inhibition of Sap9 degradation of Hst-5. It counts as biochemical. Details: made in house; host or cells: Pichia pastoris GS115 (plasmid pKJ113). The following applies: purified Sap9 protease; SDS-PAGE (Figure 3D). The text has this: (§1) Following, samples were processed as described above.
The target of a further series is Sap10 (Candida albicans, UniProt Q5A651). Put plainly: Inhibition of Sap10 degradation of Hst-5. The format is biochemical. Details: made in house; host or cells: Pichia pastoris GS115 (plasmid pKJ113). Particulars: purified Sap10 protease; SDS-PAGE (Figure 3D).
Text: as §1

For a further series, the system named is C. albicans whole cells. Briefly: Degradation assay of Hst-5 with C. albicans whole cells. Details: species or system Candida albicans. On the procedure: (§2) The C. albicans SC5314 strain, the C. albicans SAP null mutants sap1–3 triple mutant (lacking SAP1–3), sap4–6 triple mutant (lacking SAP4–6), sap9 single mutant (lacking SAP9), sap10 single mutant (lacking SAP10) and sap9,10 double mutant (lacking both SAP9 and SAP10), as well as the parent strain CAI4 (URA-) were used in these experiments, [43], [44]. Strains were grown in YPD broth (Difco Laboratories, Detroit, MI) overnight at 30°C with shaking and cells were equilibrated in fresh media to an optical density of 1.0 at OD600. High purity Hst-5, proteinase K, PMSF and pepstatin A were purchased from Sigma (Sigma-Aldrich Chemical, St. Louis, MO). Histatin-5 was reconstituted in 1 mM phosphate-buffered saline (PBS) and used at a final concentration of 150 µg/ml (within the range of physiological salivary concentration) in all experiments unless otherwise stated. All experiments were performed on at least three separate occasions.
The intensity of the bands on the Coomassie-stained gels was assessed by densitometric analysis using a MultiImager scanner (Bio-Rad Laboratories, Hercules California) and images analyzed with the PDQuest version 7.0 (BioRAd).

For series [2], the system named is cell-free supernatants of C. albicans cell suspensions. Briefly: Degradation assay of Hst-5 with cell-free supernatants. Details: species or system Candida albicans. Particulars: C. albicans supernatant compared to whole C. albicans cells; SDS-PAGE (Figure 3C).
Experimental: Degradation assays were performed by incubating Hst-5 with 100 µl of standardized cell concentrations of the C. albicans strains in PBS for 2 h at 37°C. Unless otherwise stated, C. albicans strains were used in experiments at a cell concentration of 2×10^8 cells/ml (generating two visible bands). Protease K was used as a positive control and negative controls with peptide and no C. albicans were included. Following incubation, samples were collected, heated at 100°C to remove proteolytic activity and analyzed by sodium dodecyl sulfate polyacrylamide gel electrophoresis (SDS-PAGE). Experiments were also performed using increasing C. albicans cell densities and at different time points where samples were collected following 20, 60 and 120 minutes incubation. In addition, assays were performed using cell-free supernatants from C. albicans cell suspensions to determine whether the proteolytic substance is secreted.
The target in series [3] is T1, Sap9. The following applies: MALDI-TOF/TOF MS peptide mapping. The text has this: The recombinant proteases Sap9 and Sap10 were produced in Pichia pastoris as described previously, [45]. Briefly, P. pastoris strain GS115 was transformed with the expression plasmid pKJ113 carrying truncated SAP9 and SAP10 versions lacking signal peptide- and GPI anchor consensus- encoding sequences. Proteases were recovered from culture supernatants and purified via anion exchange chromatography. Activity of proteases was verified by using a standard fluorescence casein based assay (Molecular Probes). Purified proteases (0.05, 0.1, 0.25 and 0.5 µg) were incubated with Hst-5 for 2 h. Following, samples were processed as described above.
Supernatants from the various degradation reactions were subjected to peptide mapping in order to determine the sequences of cleaved fragments, identify cleavage sites on the Hst-5 as well as other cleavage products that may not be visible by electrophoresis. […] Peptide samples were mixed with saturated α-cyano-4-hydroxycinnamic acid in acetonitrile∶trifluoroacetic acid 0.1% (1∶2 v/v) then measured on an Ultraflex MALDI-ToF/ToF device using flexControl 3.0 for data collection and flexAnalysis 3.0 for spectra analysis and peaklist generation (Bruker Daltonics GmbH, Germany). […]

Series [4] has as its system C. albicans SAP null mutants. Details: species or system Candida albicans. Particulars: sap10 single mutant compared to parent strain CAI4 and SC5314 (Figure 4). On the procedure: as §2
A further series relates to Saccharomyces cerevisiae. Put plainly: Degradation of Hst-5 by Saccharomyces cerevisiae. The following applies: compared to C. albicans (Figure S2).
Series [5] has as its target Sap5 (Candida albicans, UniProt P43094). The following applies: data not shown.
In series [6] the test system is Sap5. Briefly: Sap5 protease. Particulars: C. albicans, up to 2 h.
Series [7] concerns Sap9. Put plainly: purified recombinant Sap9 protease. Particulars: C. albicans, up to 2 h.
Series [8] can be described thus: C. albicans cells in PBS with pepstatin A. Particulars: 37°C, up to 2 h.
Series [9] is described as follows: C. albicans whole cells (2×10^8 cells/ml) in PBS. The following applies: Candida albicans, 37°C, up to 2 h.
Series [10] in a line: C. albicans whole cells (SC5314) in PBS, 2×10^8 cells/ml. Particulars: 37°C, up to 2 h.

“Also recorded” adds a separate entry of the source. Square brackets hold non-standard residues; d marks the D form. Peptide text beside a SMILES is read from it. * marks the point of attachment. Sta = CC(C)C[C@H](N)[C@@H](O)CC(=O)O; Isovaleryl = CC(C)CC(=O)* Bounds are passed on as bounds.

T1 sequence (Q59SU1 18-520): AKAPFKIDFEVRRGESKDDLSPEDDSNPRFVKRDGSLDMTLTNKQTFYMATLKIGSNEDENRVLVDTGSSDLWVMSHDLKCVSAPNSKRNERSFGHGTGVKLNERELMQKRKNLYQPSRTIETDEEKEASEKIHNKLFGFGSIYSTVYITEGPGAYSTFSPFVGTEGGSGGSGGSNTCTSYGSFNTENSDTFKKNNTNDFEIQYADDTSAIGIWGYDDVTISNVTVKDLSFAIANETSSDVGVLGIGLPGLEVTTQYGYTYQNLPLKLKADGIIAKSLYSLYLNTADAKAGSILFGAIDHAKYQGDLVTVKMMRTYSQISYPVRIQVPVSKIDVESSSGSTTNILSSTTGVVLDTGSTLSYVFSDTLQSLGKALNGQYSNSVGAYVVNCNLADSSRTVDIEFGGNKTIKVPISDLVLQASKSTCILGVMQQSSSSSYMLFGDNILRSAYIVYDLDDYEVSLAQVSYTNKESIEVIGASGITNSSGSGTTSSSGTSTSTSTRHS
Chain of Sap10 (Q5A651 21-429): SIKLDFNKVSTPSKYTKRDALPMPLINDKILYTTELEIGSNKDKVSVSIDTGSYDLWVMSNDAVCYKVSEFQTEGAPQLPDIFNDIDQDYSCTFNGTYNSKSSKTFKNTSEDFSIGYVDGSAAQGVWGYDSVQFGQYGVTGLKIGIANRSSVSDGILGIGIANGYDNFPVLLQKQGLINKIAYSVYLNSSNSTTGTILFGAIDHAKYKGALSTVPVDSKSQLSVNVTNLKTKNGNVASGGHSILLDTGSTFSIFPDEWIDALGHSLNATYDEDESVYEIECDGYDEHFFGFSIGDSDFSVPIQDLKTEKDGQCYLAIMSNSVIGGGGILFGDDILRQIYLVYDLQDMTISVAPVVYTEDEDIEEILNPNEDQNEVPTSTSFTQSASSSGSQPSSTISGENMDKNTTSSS
Chain of proteinase K (P06873 106-384): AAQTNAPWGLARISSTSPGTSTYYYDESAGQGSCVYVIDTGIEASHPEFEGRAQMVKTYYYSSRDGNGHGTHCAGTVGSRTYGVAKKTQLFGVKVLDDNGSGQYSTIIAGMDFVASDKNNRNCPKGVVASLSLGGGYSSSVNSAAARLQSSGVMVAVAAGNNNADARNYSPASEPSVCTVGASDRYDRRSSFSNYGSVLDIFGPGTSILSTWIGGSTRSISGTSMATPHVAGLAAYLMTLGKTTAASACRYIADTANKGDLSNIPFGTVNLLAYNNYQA
Chain of Sap5 (Candida albicans, UniProt P43094) (P43094 77-418): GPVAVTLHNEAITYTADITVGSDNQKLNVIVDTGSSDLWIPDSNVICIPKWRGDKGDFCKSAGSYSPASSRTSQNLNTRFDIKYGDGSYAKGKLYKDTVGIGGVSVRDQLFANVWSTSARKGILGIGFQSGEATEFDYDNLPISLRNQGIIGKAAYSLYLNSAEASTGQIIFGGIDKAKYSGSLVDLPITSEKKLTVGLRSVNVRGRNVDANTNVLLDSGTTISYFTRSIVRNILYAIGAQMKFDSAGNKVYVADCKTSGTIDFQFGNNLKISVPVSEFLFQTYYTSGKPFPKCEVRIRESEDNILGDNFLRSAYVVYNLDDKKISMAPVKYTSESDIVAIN

With `O=S(=O)(F)Cc1ccccc1` [PMSF], in the series on C. albicans cells, the “inhibition of C. albicans degradation of Hst-5” value is “not and failed to inhibit”. In addition, the “inhibition of proteinase K degradation of Hst-5” value against proteinase K was “inhibition of degradation; also recorded: inhibited”.

With `CC(C)CC(=O)N[C@H](C(=O)N[C@H](C(=O)N[C@@H](CC(C)C)[C@@H](O)CC(=O)N[C@@H](C)C(=O)N[C@@H](CC(C)C)[C@@H](O)CC(=O)O)C(C)C)C(C)C` [pepstatin A] (Isovaleryl-VV[Sta]A[Sta]-OH), the “inhibition of C. albicans degradation of Hst-5” value in the series with C. albicans cells was “inhibition of C. albicans degradation; also recorded: resulted in inhibition of degradation; also recorded: salvaged Hst-5 from degradation”. In addition, the “inhibition of Sap9 degradation of Hst-5” value against Sap9 [1] is recorded as “inhibition of degradation; also recorded: inhibited”. Besides, the “inhibition of Sap10 degradation of Hst-5” value against Sap10 was “inhibition of degradation; also recorded: inhibited”.

As for `C[C@H](NC(=O)[C@H](Cc1cnc[nH]1)NC(=O)[C@H](CO)NC(=O)[C@@H](N)CC(=O)O)C(=O)N[C@@H](CCCCN)C(=O)N[C@@H](CCCNC(=N)N)C(=O)N[C@@H](Cc1cnc[nH]1)C(=O)N[C@@H](Cc1cnc[nH]1)C(=O)NCC(=O)N[C@@H](Cc1ccc(O)cc1)C(=O)N[C@@H](CCCCN)C(=O)N[C@@H](CCCNC(=N)N)C(=O)N[C@@H](CCCCN)C(=O)N[C@@H](Cc1ccccc1)C(=O)N[C@@H](Cc1cnc[nH]1)C(=O)N[C@@H](CCC(=O)O)C(=O)N[C@@H](CCCCN)C(=O)N[C@@H](Cc1cnc[nH]1)C(=O)N[C@@H](Cc1cnc[nH]1)C(=O)N[C@@H](CO)C(=O)N[C@@H](Cc1cnc[nH]1)C(=O)N[C@@H](CCCNC(=N)N)C(=O)NCC(=O)N[C@@H](Cc1ccc(O)cc1)C(=O)O` [Hst-5, Histatin-5], the “degradation of Hst-5 by C. albicans” value with C. albicans whole cells (1×10^2 cells/ml and below, physiological concentrations of Hst-5) is on record as “unable to degrade”; with C. albicans whole cells (1×10^6 cells/ml, 2 h 37°C, SDS-PAGE) it was “no degradation”; in the series with C. albicans whole cells (2×10^9 cells/ml, 2 h 37°C, SDS-PAGE), “significant degradation”. The “degradation of Hst-5 by C. albicans over time” value in the series on C. albicans whole cells (20 mins incubation at 37°C, SDS-PAGE, lower weight product) is recorded as “Minor degradation”; in the series with C. albicans whole cells (1 h and 2 h incubation at 37°C, SDS-PAGE), “significantly increasing level of degradation”. Also, in the series with C. albicans whole cells (C. albicans cells, 37°C, PBS, SDS-PAGE (Figure 2A)), the “time in which C. albicans degrades Hst-5” value is not above 20 min. For the same compound, in the series on C. albicans whole cells (Hst-5 150 µg/ml in PBS with 100 µl C. albicans cells (2×10^8 cells/ml unless stated), 2 h 37°C, SDS-PAGE, densitometry, at least three occasions), the “degradation of Hst-5 by C. albicans cells” value is “efficiently and rapidly degrade”. For the same compound, the “level of degradation versus Hst-5 concentration” value with C. albicans whole cells (Hst-5 50–200 µg/ml, data not shown) is given as “inversely proportional to Hst-5 concentration”. Also, the “degradation of Hst-5 by cell-free supernatants” value in [2] was “significantly less degradation; also recorded: Minimal degradation”. Besides, the “cleavage site of Sap9 on Hst-5” value at Sap9 [3] is given as “Lys13”. The “degradation of Hst-5 by sap10 mutant” value in series [4] is recorded as “some degree of inhibition”. For the same compound, the “degradation of Hst-5 by C. glabrata” value in the series with Candida glabrata is given as “significant enhanced degradation”. Further, in the series on Saccharomyces cerevisiae, the “degradation of Hst-5 by S. cerevisiae” value is “significant enhanced degradation”. Moreover, the “degradation of Hst-5 by Sap5 purified protease” value on Sap5 [5] is listed as “did not degrade”.

Regarding DSHAKRHHGYKRKFHEKHHSHRGY, the not cleaved entry in the series on Sap5 [6] is “did not degrade Hst-5”; in series [8] it was “salvaged Hst-5 from degradation”. The cleaved bond result in the series on Sap9 [7] is on record as “R12-Lys13”; in [9] it was “K17-H18”; in series [10], “R12-Lys13; also recorded: K17-H18”.
